Results on 1 compound are retold here after patent publication US20210024520A1, “THERAPEUTIC AGENT FOR LCAT DEFICIENCY” (DAIICHI SANKYO COMPANY, LIMITED, priority 2018, published 2021).

Type in all cases: biochemical
In test [1] the target is T1, mutant LCAT protein N131D (Homo sapiens, UniProt P04180, N155D).
T1 construct: made in house; host or cells: HEK293 cells (culture supernatant)
T1 sequence (P04180 25-440 N155D): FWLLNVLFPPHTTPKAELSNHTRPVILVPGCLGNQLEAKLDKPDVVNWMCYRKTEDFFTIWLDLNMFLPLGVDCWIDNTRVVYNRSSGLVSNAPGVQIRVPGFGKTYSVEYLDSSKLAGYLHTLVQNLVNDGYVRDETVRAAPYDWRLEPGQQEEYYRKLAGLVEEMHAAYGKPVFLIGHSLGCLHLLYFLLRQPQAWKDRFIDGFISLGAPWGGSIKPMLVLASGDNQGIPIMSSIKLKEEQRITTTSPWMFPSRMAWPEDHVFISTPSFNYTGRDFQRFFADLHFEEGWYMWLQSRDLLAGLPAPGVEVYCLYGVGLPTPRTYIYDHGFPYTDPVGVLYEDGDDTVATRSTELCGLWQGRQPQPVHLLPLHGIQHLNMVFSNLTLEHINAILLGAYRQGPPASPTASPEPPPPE
Kind of test: Measurement of LCAT activity using LCAT mutant protein N131D (FED), reconstituted HDL with [14C]-cholesterol. The note with it: compound concentration 1 μM. As for the experimental part:
(§1) Mutant LCAT proteins, reported on gene mutations among patients with familial LCAT deficiency (FLD) and patients with fish eye disease (FED), were expressed in HEK293 cells, and the mutant LCAT proteins were purified from the culture supernatant and used as enzyme sources. HDL was reconstituted with phosphatidylcholine, [14C]-labelled cholesterol, and apolipoprotein A-I and used as a reactive substrate. The test compound was prepared by being dissolved in dimethyl sulfoxide. To a mixture of 7 μL of the mutant LCAT protein solution (concentration 0.034 μg/μL), 1 μL each of PBS containing 10% bovine serum albumin or mercaptoethanol, and 40 μL of the above-mentioned reconstituted HDL was further added 1 μL of the test compound (final concentration 1 or 10 μM) to prepare 50 μL of a mixture in total. The mixture was incubated at 37° C. for 1 hour and subsequently a mixed solution of hexane and isopropanol (mixing ratio=3:2) was added to stop the reaction. […] Radioactivity of a portion corresponding to the cholesterol ester separated on each lane by the development on the silica gel thin-layer plate was measured using an imaging analyzer BAS-2500 (manufactured by FUJIFILM Corporation). […] Additionally, the presence and absence of significant differences in both cases were statistically evaluated using t-test or Dunnett multiple comparison test.

For test [2], the target named is T2, mutant LCAT protein T1231 (Homo sapiens, UniProt P04180, T147I).
T2 construct: made in house; host or cells: HEK293 cells (culture supernatant)
T2 sequence (P04180 25-440 T147I): T1 sequence (P04180 25-440 N155D) with T123I, D131N
Kind of test: Measurement of LCAT activity using LCAT mutant protein T1231 (FED), reconstituted HDL with [14C]-cholesterol. The settings on record: compound concentration 1 μM. As for the experimental part:
as §1

In test [3] the target is T3, mutant LCAT protein N228K (Homo sapiens, UniProt P04180, N252K).
T3 construct: made in house; host or cells: HEK293 cells (culture supernatant)
T3 sequence (P04180 25-440 N252K): T1 sequence (P04180 25-440 N155D) with D131N, N228K
Nature of the test: Measurement of LCAT activity using LCAT mutant protein N228K (FLD), reconstituted HDL with [14C]-cholesterol. The settings on record: for Measured value of LCAT activity Mean ± standard error (n = 6): 37° C. 1 hour, radioactivity of cholesterol ester. How it is done:
(§2) Mutant LCAT proteins, reported on gene mutations among patients with familial LCAT deficiency (FLD) and patients with fish eye disease (FED), were expressed in HEK293 cells, and the mutant LCAT proteins were purified from the culture supernatant and used as enzyme sources. HDL was reconstituted with phosphatidylcholine, [14C]-labelled cholesterol, and apolipoprotein A-I and used as a reactive substrate. The test compound was prepared by being dissolved in dimethyl sulfoxide. To a mixture of 7 μL of the mutant LCAT protein solution (concentration 0.034 μg/μL), 1 μL each of PBS containing 10% bovine serum albumin or mercaptoethanol, and 40 μL of the above-mentioned reconstituted HDL was further added 1 μL of the test compound (final concentration 1 or 10 μM) to prepare 50 μL of a mixture in total. The mixture was incubated at 37° C. for 1 hour and subsequently a mixed solution of hexane and isopropanol (mixing ratio=3:2) was added to stop the reaction. Water was added and stirred, and subsequently the hexane layer was collected and concentrated to dryness. A chloroform solution (concentration 10 mg/mL) was added thereto, spotted on a silica gel thin-layer plate and developed with a mixed solution of hexane, diethyl ether and ethyl acetate (mixing ratio=85:15:2). Radioactivity of a portion corresponding to the cholesterol ester separated on each lane by the development on the silica gel thin-layer plate was measured using an imaging analyzer BAS-2500 (manufactured by FUJIFILM Corporation). Radioactivities with and without the test compound were compared to calculate the ratio of LCAT activity with the addition of the test compound to that without the addition of the test compound for each of the mutant proteins. Additionally, the presence and absence of significant differences in both cases were statistically evaluated using t-test or Dunnett multiple comparison test.

Test [4] has as its target T4, mutant LCAT protein Y156N (Homo sapiens, UniProt P04180, Y180N).
T4 construct: made in house; host or cells: HEK293 cells (culture supernatant)
T4 sequence (P04180 25-440 Y180N): T1 sequence (P04180 25-440 N155D) with D131N, Y156N
Kind of test: Measurement of LCAT activity using LCAT mutant protein Y156N (FLD), reconstituted HDL with [14C]-cholesterol. The settings on record: for Measured value of LCAT activity Mean ± standard error (n = 6): 37° C. 1 hour, radioactivity of cholesterol ester. As for the experimental part: as §2

Test [5] addresses T5, mutant LCAT protein P10Q (Homo sapiens, UniProt P04180, P34Q).
T5 construct: made in house; host or cells: HEK293 cells (culture supernatant)
T5 sequence (P04180 25-440 P34Q): T1 sequence (P04180 25-440 N155D) with P10Q, D131N
Kind of test: Measurement of LCAT activity using LCAT mutant protein P10Q (FED), reconstituted HDL with [14C]-cholesterol. The note with it: compound concentration 1 μM. How it is done:
as §1

[6] abbreviates: 37° C. 1 hour, radioactivity of cholesterol ester.

Residue numbers refer to the chain shown, from its start.

For the compound `O=C1Nc2[nH]nc(C3CCN(c4cnc(C(F)(F)F)nc4)CC3)c2[C@@H](C(F)(F)F)[C@H]1O` [test compound, (+)-Cis-5-hydroxy-4-(trifluoromethyl)-3-{1-[2-(trifluoromethyl)pyrimidin-5-yl]piperidin-4-yl}-1,4,5,7-tetrahydro-6H-pyrazolo[3,4-b]pyridin-6-one], the “LCAT activity ratio of case of compound addition to no-addition control” value came to 3.19 in test [1]; 3.75 in test [2]; 2.80 in test [3] (compound concentration 1 μM); 2.76 in test [3] (compound concentration 10 μM); 1.83 in test [4] (compound concentration 1 μM); 1.82 in test [4] (compound concentration 10 μM). In addition, in test [5], the “LCAT activity ratio of case of compound addition to no-addition control” value was determined as 3.83. Moreover, the “Measured value of LCAT activity Mean ± standard error (n = 6)” value in test [1] (setting [6]) was determined as 1308.38 ± 259.22; in test [2] (setting [6]), 3263.11 ± 521.27; in test [3] (compound concentration 1 μM), 634.17 ± 66.62; in test [3] (compound concentration 10 μM), 625.22 ± 41.03; in test [4] (compound concentration 1 μM) it was 447.36 ± 47.06; in test [4] (compound concentration 10 μM) it was 443.20 ± 36.83. The “Measured value of LCAT activity Mean ± standard error (n = 6)” value in test [5] (setting [6]) amounted to 2908.25 ± 429.42.
